Assay results published in patent US11311576B2, “Methods of use for CAR T cells” (Seattle Children's Hospital, priority 2018, dated 2022).

Legend:
E2-CAR-T cells = experiment: 3H-EC17 uptake by E2-CAR-T cells; format: binding, human; details: read-out: Kd of 3H-EC17 (estimated); unsorted E2-CAR-T cells (~24% EGFRt+, ~95:5 CD8/CD4), 2 hour at room temperature
Text: (calculated from the numbers of molecules bound per cell).
Principle Components of CAM Controlled CAR T Cell Therapy. The basic components of the CAR-T cell therapy involve FITC as the pseudo tumor antigen, the high affinity EC17 CAM (a CAM is equivalent to a bridge or the “compound” in this application), and a rationally designed anti-FITC CAR and CAR-modified T cells. The EC17 has already been tested in the clinic for immunotherapy and optical imaging purposes. To directly quantify its bispecific binding affinities, ^3H-EC17 was synthesized and radioligand binding assays were carried out on KB and CHO-β cell lines representing FRα+ and FRβ+ target cells, respectively, and on unsorted EGFRt CAR-T cells representing the effector cells.

MDA-MB-231 tumors = experiment: Dietary folate effect on antitumor activity and CRS toxicity, MDA-MB-231 tumors; format: in vivo, NSG mice
Description: To study the effect of high dietary folate (FIG. 63A, FIG. 63B, FIG. 63C, FIG. 63D), two sets of NSG mice were placed on either a FA-replete diet (4 mg/kg, Envigo, Indianapolis, Ind.) or a FA-deficient diet (TestDiet, St. Louis, Mo.) upon arrival. On day 0, both sets of the mice received ˜10 million of the same “clinical facsimile” CAR-T cells followed by no EC17 or EC17 SIW at 500 nmol/kg starting on day 3. On the first day of EC17 administration, MDA-MB-231 tumors size averaged around ˜549±184 mm^3 (280-918 mm3) in FA-replete mice, and ˜559±165 mm^3 (356-961 mm^3) in FA-deficient mice.
Previously, it was shown that administration of FA or a FA ligand helped reduce the severity of CRS in MDA-MB-231 tumor-bearing mice. To test the long-term effect of dietary folate, mice were maintained on defined diets for ˜73 days and used when their tumors reached ˜549±184 mm3 (280-918 mm^3) in FA-replete mice, and ˜559±165 mm^3 (356-961 mm^3) in FA-deficient mice (FIG. 63A, FIG. 63B, FIG. 63C, FIG. 63D).

FRβ (CHO-b) = molecular target: T1, FRβ (CHO-b) (Homo sapiens, UniProt P14207); experiment: 3H-EC17 cell-based radioligand binding assay, CHO-β cells; details: 2 h at 37° C.
T1 construct: expressed in transfected cells; host or cells: CHO (Chinese hamster ovary) cells
T1 sequence (P14207 17-230): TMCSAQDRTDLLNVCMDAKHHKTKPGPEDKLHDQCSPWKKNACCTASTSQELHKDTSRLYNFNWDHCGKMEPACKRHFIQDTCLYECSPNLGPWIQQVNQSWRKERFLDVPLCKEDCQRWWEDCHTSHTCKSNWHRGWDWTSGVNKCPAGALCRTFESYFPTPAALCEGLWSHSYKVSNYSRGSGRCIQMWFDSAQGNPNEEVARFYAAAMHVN
Description: (§1) The bispecific affinities of EC17 CAM were assessed using ^3H-EC17 in cell-based radioligand binding assays. For binding to FR+ targets, KB and CHO-β cells were pre-seeded overnight in 24-well tissue culture plates and incubated with 0.1, 0.5, 1, 5, 10, 20, and 40 nM of ^3H-EC17 in FFRPMI for 2 h at 37° C. Afterwards, the cells were rinsed with phosphate-buffered saline (PBS, pH 7.4) and lysed with 1% sodium dodecylsulfate. The whole cell lysates were quantitated for the level of radioactivity and cellular protein content by standard Pierce BCA protein assay. The number of ^3H-EC17 molecules bound per cell was calculated to determine the dissociation constants (Kd) for FRα (KB) and FRβ (CHO-b) respectively (FIG. 56A, FIG. 56B).

MDA-MB-231 = experiment: EC17 dose response, specific lysis in co-culture with E2-CAR-T cells (LDH assay); format: cell-based, human; details: 24 hours co-culture
Description: (§2) After 24 hours of co-culture, supernatants were harvested to determine tumor cell killing. To study the kinetics of T cell activation and FR correlation in vitro (FIG. 60A, FIG. 60B, FIG. 60C, FIG. 60D, FIG. 60E), co-cultures were carried out in FR+/− cell lines at varying E/T ratios (1:27, 1:9, 1:3, 1:1, 3:1) in the continuous presence of 10 nM EC17. The kinetics of tumor cell killing were quantified after 16 and 48 hours of co-culture. Meanwhile, a portion of the supernatants was taken after 44 hours of co-culture for measurement of IFNg, IL-2 and TNFα. Using Promega's CytoTox 96® LDH assay kit, target cell killing was quantified and expressed as specific lysis (%) which was normalized to basal levels in the absence of EC17 at defined E/T ratios. The LEGENDplex™ human Th1 cytokine panel (BioLegend, San Diego, Calif.) was used to determine CAR-T cell derived cytokines.
(§3) To study the robustness of CAR-T cell activation, 5 FR+ cell lines (KB, MDA-MB-231, HOS-FRα, THP1-FRβ, OV90) were used along with a wide range of EC17 concentration (0.1 pM to 100 μM) at an E/T ratio of 1:1 (FIG. 59A, FIG. 59B). Specific lysis (%) was quantified by Promega's LDH cytotoxicity assay kit after 24 hours of co25 culture. In all cell lines, EC17-dependent cytolysis followed a bell-shaped dose response with a somewhat broad concentration plateau (˜0.1 nM to […]) (FIG. 59A). […] However, maximal lysis obtained for each cell line ranked differently at 45% (MDA-MB-231), 27% (THP1-FRb), 18% (HOS-FRα), 15% (OV90) and 11% (KB) (FIG. 59B).

OV90 = experiment: as above; format: cell-based, human; details: 24 hours co-culture
Description: as §2, §3

THP1-FRβ = experiment: as above; format: cell-based, human; details: 24 hours co-culture
Description: as §2, §3

HOS-FRα = experiment: as above; format: cell-based, human; details: 24 hours co-culture
Description: as §2, §3

KB = experiment: as above; format: cell-based, human; details: 24 hours co-culture
Description: as §2, §3

FRα (KB) = molecular target: T2, FRα (KB) (Homo sapiens, UniProt P15328); experiment: 3H-EC17 cell-based radioligand binding assay, KB cells; details: 2 h at 37° C.
T2 construct: endogenous in cells; host or cells: KB cells (human cervical carcinoma with HeLa markers)
T2 sequence (P15328 25-234): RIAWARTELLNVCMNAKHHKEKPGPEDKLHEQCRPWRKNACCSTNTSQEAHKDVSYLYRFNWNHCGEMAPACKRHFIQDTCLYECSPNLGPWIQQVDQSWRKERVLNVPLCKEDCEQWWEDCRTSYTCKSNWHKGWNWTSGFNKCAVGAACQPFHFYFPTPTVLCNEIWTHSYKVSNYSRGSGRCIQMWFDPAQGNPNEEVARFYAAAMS
Description: as §1

[1] = FA-deficient diet, each subsequent EC17 dose
[2] = FA-replete mice, CAR-T cells plus EC17
[3] = Homo sapiens, EC17, E/T 1:1, curve fitted up to 100 nM, read-out: half-maximal effective concentration (EC50), specific lysis

For `NC1=NC2N=CC(CNc3ccc(C(=O)N[C@@H](CCC(=O)NCCNC(=S)Nc4ccc(-c5c6ccc(=O)cc-6oc6cc(O)ccc56)c(C(=O)O)c4)C(=O)O)cc3)=NC2C(=O)N1` (stereo partly drawn) [EC17, FA-(g)-ethylenediamine-FITC], the Kd (E2-CAR-T cells) was roughly 130 nM, the CRS grade (MDA-MB-231 tumors; [1]) was 2-3 and the body weight loss (MDA-MB-231 tumors; [1]) was no more than 11.4%. The cures (MDA-MB-231 tumors; FA-deficient mice, CAR-T cells plus EC17) was 5/5, the “symptoms of CRS” value (MDA-MB-231 tumors; FA-replete diet, eight weekly EC17 doses of 500 nmol/kg) was “did not show symptoms of CRS” and the complete responses (MDA-MB-231 tumors; [2]) was 2/5. The cures (MDA-MB-231 tumors; [2]) was 2/5, the partial response (MDA-MB-231 tumors; [2]) was 1/5 and the “CRS or body weight loss after first full dose” value (MDA-MB-231 tumors; ~10 million clinical facsimile E2-CAR-T cells, EC17 500 nmol/kg, either diet) was “did not cause any CRS or body weight loss”. For the same compound, the Kd (FRβ (CHO-b)) was 0.8 nM, the maximal lysis (MDA-MB-231; E/T 1:1) was 45% and the EC50 (MDA-MB-231; Homo sapiens, MDA-MB-231, E/T 1:1, curve fitted up to 100 nM, read-out: half-maximal effective concentration (EC50), specific lysis) was 0.0045 nM. For the same compound, the maximal lysis (OV90; E/T 1:1) was 15%, the EC50 (OV90; Homo sapiens, OV-90, E/T 1:1, curve fitted up to 100 nM, read-out: half-maximal effective concentration (EC50), specific lysis) was 0.418 nM and the maximal lysis (THP1-FRβ; E/T 1:1) was 27%. It also gave an EC50 (THP1-FRβ; [3]) of 0.015 nM, a maximal lysis (HOS-FRα; E/T 1:1) of 18% and an EC50 (HOS-FRα; [3]) of 0.03 nM. For the same compound, the maximal lysis (KB; E/T 1:1) was 11%, the EC50 (KB; Homo sapiens, KB, E/T 1:1, curve fitted up to 100 nM, read-out: half-maximal effective concentration (EC50), specific lysis) was 0.0053 nM and the Kd (FRα (KB)) was 1.7 nM.
